These results are taken from US20260274836A1, “NOVEL HEPATOSELECTIVE POLYADENYLATING POLYMERASES INHIBITORS AND THEIR METHOD OF USE” (Baruch S. Blumberg Institute, priority 2022, published 2026).

SMILES strings stand for the structures. Like-named read-outs stand apart in the source and are kept apart here. A value given as a limit tells only on which side of the number the result lay.

What is called EC50 is the midpoint of the concentration-response curve. As a reminder, the CC50 is the concentration giving 50% cytotoxicity.

One series concerns the target T1, OATP1B1 (Homo sapiens, UniProt Q9Y6L6).
T1 construct: expressed in transfected cells; host or cells: HEK293
T1 sequence (Q9Y6L6 1-691): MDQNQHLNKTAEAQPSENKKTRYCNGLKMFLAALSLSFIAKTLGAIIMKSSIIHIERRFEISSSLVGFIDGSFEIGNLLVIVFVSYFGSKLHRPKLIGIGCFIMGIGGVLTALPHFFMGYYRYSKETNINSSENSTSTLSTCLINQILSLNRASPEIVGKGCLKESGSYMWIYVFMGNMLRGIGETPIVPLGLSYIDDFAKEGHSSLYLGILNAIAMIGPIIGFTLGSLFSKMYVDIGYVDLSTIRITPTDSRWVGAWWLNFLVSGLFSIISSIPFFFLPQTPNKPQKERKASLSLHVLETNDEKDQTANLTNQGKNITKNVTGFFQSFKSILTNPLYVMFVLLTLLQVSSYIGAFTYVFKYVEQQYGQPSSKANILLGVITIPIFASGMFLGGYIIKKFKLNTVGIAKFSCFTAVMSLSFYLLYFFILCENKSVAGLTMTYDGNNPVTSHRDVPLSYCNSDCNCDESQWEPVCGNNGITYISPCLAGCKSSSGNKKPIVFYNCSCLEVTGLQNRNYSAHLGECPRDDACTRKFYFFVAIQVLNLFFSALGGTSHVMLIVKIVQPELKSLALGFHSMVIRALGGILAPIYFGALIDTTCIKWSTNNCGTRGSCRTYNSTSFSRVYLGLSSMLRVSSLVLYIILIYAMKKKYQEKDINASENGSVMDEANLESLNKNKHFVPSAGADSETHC
Briefly: OATP1B1 transporter substrate uptake in OATP1B1-HEK293 cells. Particulars: for Uptake Ratio (−/+Inhibitor): OATP1B1-HEK293 cells, inhibitor Rifamycin SV. In kind it is in vitro ADME. On the procedure:
(§1) Protocol for identification of compounds that are substrates of transporters OATPIBI and OATPIB3. Transfected HEK293 and vector control HEK293 cells were cultured in 24-well poly-D-lysine or collagen-coated tissue culture plates ([…]) for 2 and 10 minutes respectively in transport buffer (HBSSg, pH 7.4, pre-warmed to 37° C.). At a defined time point, the uptake experiments were stopped by removing dosing solution followed by two washes of ice-cold HBSSg buffer. The cells were lysed for 2 minutes with 75% ACN containing an appropriate internal standard (when available). Lysis buffer were chilled to −20° C., and the plate was kept on ice during lysis. The cell lysate was transferred into a 96-well plate for sample analysis with LC-MS/MS analysis to determine concentration of test compound in cell lysate. The uptake of test compounds was normalized by total cell protein using the BCA Protein Assay Kit following the manufacturer's protocol. The inhibitor Rifamycin SV was used to block OATP1B1 and OATP1B3 transporter activity in order to determine uptake ratios.

For the next series, the target named is T2, OATP1B3 (Homo sapiens, UniProt Q9NPD5).
T2 construct: expressed in transfected cells; host or cells: HEK293
T2 sequence (Q9NPD5 1-702): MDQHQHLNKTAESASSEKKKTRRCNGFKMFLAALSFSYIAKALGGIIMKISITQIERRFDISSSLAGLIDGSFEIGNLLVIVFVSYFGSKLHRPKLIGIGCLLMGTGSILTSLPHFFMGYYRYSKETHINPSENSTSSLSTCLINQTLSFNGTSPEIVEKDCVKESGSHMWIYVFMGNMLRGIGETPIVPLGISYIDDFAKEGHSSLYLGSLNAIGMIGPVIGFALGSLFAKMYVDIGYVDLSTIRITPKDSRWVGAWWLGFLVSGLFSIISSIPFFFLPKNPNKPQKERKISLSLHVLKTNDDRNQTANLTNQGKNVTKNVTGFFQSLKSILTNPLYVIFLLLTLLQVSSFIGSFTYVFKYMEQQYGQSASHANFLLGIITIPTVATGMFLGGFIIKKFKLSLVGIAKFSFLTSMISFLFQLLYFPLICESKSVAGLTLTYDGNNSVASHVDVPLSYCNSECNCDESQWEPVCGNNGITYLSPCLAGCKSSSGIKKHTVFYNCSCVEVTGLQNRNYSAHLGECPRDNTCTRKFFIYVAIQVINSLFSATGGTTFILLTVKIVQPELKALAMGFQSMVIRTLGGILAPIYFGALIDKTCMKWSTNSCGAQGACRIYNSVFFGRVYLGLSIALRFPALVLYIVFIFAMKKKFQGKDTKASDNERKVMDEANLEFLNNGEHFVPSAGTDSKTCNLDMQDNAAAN
Briefly: OATP1B3 transporter substrate uptake in OATP1B3-HEK293 cells. In kind it is in vitro ADME. Particulars: for Uptake Ratio (−/+Inhibitor): OATP1B3-HEK293 cells, inhibitor Rifamycin SV. On the procedure:
as §1

Series [1] has as its target interaction of PAPD5 with ZCCHC14 (Homo sapiens, UniProt Q8NDF8). Briefly: Interaction of PAPD5 with ZCCHC14.
Series [2] deals with HAV. Particulars: cited from earlier work.
Series [3] deals with HAV. Particulars: Ifnar1^−/− mice, cited from earlier work.
The subject of series [4] is 18f-NLuc reporter virus (HM175/18f HAV). Briefly: Antiviral activity against human hepatitis A virus, 18f-NLuc reporter virus in Huh-7 cells. It counts as cell-based, Human Hepatitis A Virus (Hepatovirus A). On the procedure:
Assay for Antiviral Activity Against Human Hepatitis A Virus (Hepatovirus A).
(§2) Assays for the anti-HAV activity of the hepatoselective DHQ compounds were carried out in Huh-7 human hepatoma cells using the 18f-NLuc reporter virus, which expresses nanoluciferase (NLuc) from sequence inserted into the polyprotein coding region of the HM175/18f HAV genome between the VP1pX and 2B coding sequences (Yamane et al., 2019). The method was modified minimally from that described by Misumi et al. for iminosugar compounds (Misumi et al., 2021). Cells (approximately […]) were plated in wells of a 96-well plate with Dulbecco's modified Eagle medium (DMEM) and 10% fetal bovine serum. The cells were inoculated 24 hrs later with 18f-NLuc virus (approximately 10^6-10^7 genome equivalents) in medium containing increasing concentrations of the compounds of interest. The cells were re-incubated for 48 hrs at 37° C. in a 5% CO2 environment, then lysed in 1× passive lysis buffer (Promega) for 15 min at room temperature. Cell lysates were transferred to an opaque white 96-well plate (Corning, 3912) and NLuc assay carried out using the NLuc GLOW Assay kit (Nanolight Technology). Luminescence was measured using a Biotek Synergy II multi-mode plate reader (BioTek Instruments). The percent inhibition of replication was calculated by determining the reduction in NLuc activity from that expressed by infected cells incubated in parallel in the absence of compound, and 50% inhibitory endpoints estimated by fitting the data to a four parameter variable slope logistic curve using Prism 9 for Mac OS software (GraphPad). Cell toxicity of the compounds was assessed using the WST-1 Cell Proliferation Reagent (Sigma-Aldrich) at the end of the treatment period in parallel cultures of uninfected cells, with WST-1 reagent added to cultures for 1 hr prior to harvest and O.D. reading.
as §2, with “Additional exemplary compounds of the present invention are evaluated for anti-HAV activity in accordance with certain assays described hereinabove. As discussed above, assays” for “Assays”, “10^6-107” for “10^6-10^7”

Another series is described as follows: in vitro. In kind it is cell-based. The settings on record: human. How it is done:
Assays for the anti-HAV activity of the hepatoselective DHQ compounds were carried out in Huh-7 human hepatoma cells using the 18f-NLuc reporter virus, which expresses nanoluciferase (NLuc) from sequence inserted into the polyprotein coding region of the HM175/18f HAV genome between the VP1pX and 2B coding sequences (Yamane et al., 2019). The method was modified minimally from that described by Misumi et al. for iminosugar compounds (Misumi et al., 2021). Cells (approximately […]) were plated in wells of a 96-well plate with Dulbecco's modified Eagle medium (DMEM) and 10% fetal bovine serum. The cells were inoculated 24 hrs later with 18f-NLuc virus (approximately 10^6-10^7 genome equivalents) in medium containing increasing concentrations of the compounds of interest. […] Luminescence was measured using a Biotek Synergy II multi-mode plate reader (BioTek Instruments). […] Cell toxicity of the compounds was assessed using the WST-1 Cell Proliferation Reagent (Sigma-Aldrich) at the end of the treatment period in parallel cultures of uninfected cells, with WST-1 reagent added to cultures for 1 hr prior to harvest and O.D. reading.
Additional exemplary compounds of the present invention are evaluated for anti-HAV activity in accordance with certain assays described hereinabove. […] Luminescence was measured using a Biotek Synergy II multi-mode plate reader (BioTek Instruments). […]

The mark [5] stands for this setting: read-out: EC50 HAV, Huh-7 cells, 18f-NLuc virus, 48 hrs.
[6] abbreviates: Hepatovirus A, Huh-7, 48 h, read-out: EC50 HAV (nM), Huh-7 cells, 18f-NLuc virus, 48 hrs.

Chain of interaction of PAPD5 with ZCCHC14 (Q8NDF8 whole entry): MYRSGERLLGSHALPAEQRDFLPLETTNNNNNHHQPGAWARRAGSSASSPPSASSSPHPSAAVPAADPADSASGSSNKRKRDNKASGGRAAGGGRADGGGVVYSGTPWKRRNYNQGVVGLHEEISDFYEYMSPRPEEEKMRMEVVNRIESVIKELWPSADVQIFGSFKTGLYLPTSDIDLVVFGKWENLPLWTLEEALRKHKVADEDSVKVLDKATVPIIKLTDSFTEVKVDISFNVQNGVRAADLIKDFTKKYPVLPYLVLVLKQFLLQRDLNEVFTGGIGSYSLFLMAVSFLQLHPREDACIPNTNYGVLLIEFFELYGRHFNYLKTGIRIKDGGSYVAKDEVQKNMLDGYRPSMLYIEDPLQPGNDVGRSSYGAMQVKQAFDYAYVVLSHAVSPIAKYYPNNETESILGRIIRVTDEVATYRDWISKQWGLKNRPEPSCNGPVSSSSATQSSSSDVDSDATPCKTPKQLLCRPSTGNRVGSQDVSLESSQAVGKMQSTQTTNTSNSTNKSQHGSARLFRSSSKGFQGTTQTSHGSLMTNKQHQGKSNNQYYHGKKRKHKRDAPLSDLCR

As for `COCCCOc1cc2c(cc1OC)-c1cc(=O)c(C(=O)O)cn1[C@H](C(C)C)C2` [DHQ-1], the “Uptake Ratio (−/+Inhibitor)” value is on record as 0.38 at OATP1B1 (test concentration 1 μM) and 0.42 on OATP1B3 (test concentration 1 μM). Moreover, the “Uptake Ratio (Transporter(−Inhibitor)/Mock(−Inhibitor))” value worked out at 0.71 on OATP1B1 (OATP1B1-HEK293 vs mock HEK293, test concentration 1 μM) and 0.56 on OATP1B3 (OATP1B3-HEK293 vs mock HEK293, test concentration 1 μM). Moreover, in series [1], the “Interaction of PAPD5 with ZCCHC14” value was “prevents the interaction of PAPD5 with ZCCHC14”. For the same molecule, the “HAV replication in cultured cells” value in the series on HAV [2] is on record as “inhibit HAV replication”. In the series on HAV [3] (given shortly after intravenous virus challenge), the Prevention of infection result is “completely prevented infection”. Further, the “HAV replication in mice” value with HAV [3] (oral treatment) is recorded as “blocked HAV replication”.

Turning to `C[C@]12CC[C@@H]3c4ccc(O)cc4CC[C@H]3[C@@H]1CC[C@@H]2O[C@@H]1O[C@H](C(=O)O)[C@@H](O)[C@H](O)[C@H]1O` [Estradiol 17-β Glucuronide], the results for the “Uptake Ratio (−/+Inhibitor)” value at OATP1B1 (test concentration 10 μM) and at OATP1B3 (test concentration 10 μM) were 81.84 and 86.15, respectively. The “Uptake Ratio (Transporter(−Inhibitor)/Mock(−Inhibitor))” value amounted to 48.70 on OATP1B1 (OATP1B1-HEK293 vs mock HEK293, test concentration 10 μM) and 98.86 at OATP1B3 (OATP1B3-HEK293 vs mock HEK293, test concentration 10 μM).

Turning to `COc1cc2c(cc1OCCCCCCCCC(=O)O)C[C@@H](C(C)C)n1cc(C(=O)O)c(=O)cc1-2` [Example 8, (S)-9-((8-carboxyoctyl)oxy)-6-isopropyl-10-methoxy-2-oxo-6,7-dihydro-2H-pyrido[2,1-a]isoquinoline-3-carboxylic acid], in series [4] (Hepatovirus A, Huh-7, 48 h, Huh-7 cells, 18f-NLuc virus, 48 hrs), the EC50 is 18.2 nM. Moreover, the CC50 at 48 h in “in vitro” is more than 10000 nM.

In the case of `COc1cc2c(cc1OCCCCCCCCC(=O)O)C[C@@H](C(C)C)n1cc(C(=O)O)c(=O)cc1-2` [Example A], the EC50 in series [4] (setting [5]) was 67 nM.

Take `COc1cc2c(cc1OCCCCCCCCC(=O)O)C[C@@H](C(C)C)n1cc(C(=O)O)c(=O)cc1-2` [Example B]: the half-maximal effective concentration (EC50) in series [4] (setting [5]) was found to be 63 nM.

As to `COc1cc2c(cc1OCCc1cccc(C(=O)O)c1)C[C@@H](C(C)C)n1cc(C(=O)O)c(=O)cc1-2` [Example C], in series [4] (setting [6]), the EC50 came to 325 nM.

As for `COc1cc2c(cc1OCCc1ccc(C(=O)O)cc1)C[C@@H](C(C)C)n1cc(C(=O)O)c(=O)cc1-2` [Example D], the EC50 in series [4] (setting [6]) was found to be 245 nM.

For `COc1cc2c(cc1OCCCc1ccc(C(=O)O)cc1)C[C@@H](C(C)C)n1cc(C(=O)O)c(=O)cc1-2` [Example E], the EC50 in series [4] (setting [6]) is 382 nM.

Consider `COc1cc2c(cc1OCCCCCC(C)(C)C(=O)O)C[C@@H](C(C)C)n1cc(C(=O)O)c(=O)cc1-2` [Example F], for which, in series [4] (setting [6]), the EC50 was 25 nM.

On to `COc1cc2c(cc1OCCCCCCC(=O)O)C[C@@H](C(C)C)n1cc(C(=O)O)c(=O)cc1-2` [Example G], for which the EC50 in series [4] (setting [6]) was 278 nM.

Take `COc1cc2c(cc1OCCCCCCCCC(=O)O)C[C@@H](C(C)C)n1cc(C(=O)O)c(=O)cc1-2` [Example H]: in series [4] (setting [5]), the EC50 was found to be 18.2 nM.
